Reference: ChEMBL document CHEMBL1156959, “Potent ketoamide inhibitors of HCV NS3 protease derived from quaternized P1 groups” (Bioorg Med Chem Lett, 2010)

Legend:
Hepatitis C virus [1] = assay: Antiviral activity against Hepatitis C virus genotype 1 assessed as Inhibition of RNA replication transfected in human hepatoma cells; assay type: functional, Hepacivirus hominis
Hepatitis C virus [2] = assay: Inhibition of Hepatitis C virus genotype 1 NS3 protease; assay type: functional

SMILES | EC90 (Hepatitis C virus [1]) [nM] | Ki (Hepatitis C virus [2]) [nM]
CC[C@@H]1C[C@@]1(NC(=O)[C@@H]1[C@@H]2[C@H](CN1C(=O)[C@@H](NC(=O)N[C@H](CN1C(=O)CC(C)(C)CC1=O)C(C)(C)C)C(C)(C)C)C2(C)C)C(=O)C(N)=O | 1600 | 0.058
CC(C)(C)[C@H](NC(=O)NC1(CS(=O)(=O)C(C)(C)C)CCCCC1)C(=O)N1C[C@H]2[C@@H]([C@H]1C(=O)NC1(C(=O)C(=O)NC3CC3)CC1)C2(C)C | – | 18
C[C@@H]1C[C@@]1(NC(=O)[C@@H]1[C@@H]2[C@H](CN1C(=O)[C@@H](NC(=O)NC1(CS(=O)(=O)C(C)(C)C)CCCCC1)C(C)(C)C)C2(C)C)C(=O)C(=O)NC1CC1 | – | 3
CC[C@@H]1C[C@@]1(NC(=O)[C@@H]1[C@@H]2[C@H](CN1C(=O)[C@@H](NC(=O)NC1(CS(=O)(=O)C(C)(C)C)CCCCC1)C(C)(C)C)C2(C)C)C(=O)C(=O)NC1CC1 | – | 0.11
CCC[C@@H]1C[C@@]1(NC(=O)[C@@H]1[C@@H]2[C@H](CN1C(=O)[C@@H](NC(=O)NC1(CS(=O)(=O)C(C)(C)C)CCCCC1)C(C)(C)C)C2(C)C)C(=O)C(=O)NC1CC1 | – | 0.7
CC(C)(C)[C@H](NC(=O)NC1(CS(=O)(=O)C(C)(C)C)CCCCC1)C(=O)N1C[C@H]2[C@@H]([C@H]1C(=O)NC1(C(=O)C(=O)NC3CC3)CCC1)C2(C)C | – | 15
CC[C@@H]1C[C@@]1(NC(=O)[C@@H]1[C@@H]2[C@H](CN1C(=O)[C@@H](NC(=O)N[C@H](CN1C(=O)CC(C)(C)CC1=O)C(C)(C)C)C(C)(C)C)C2(C)C)C(=O)C(=O)NC1CC1 | 500 | 0.082
CC[C@@H]1C[C@@]1(NC(=O)[C@@H]1[C@@H]2[C@H](CN1C(=O)[C@@H](NC(=O)N[C@H](CN(C)S(C)(=O)=O)C(C)(C)C)C(C)(C)C)C2(C)C)C(=O)C(=O)NC1CC1 | 2700 | 0.2
CC[C@@H]1C[C@@]1(NC(=O)[C@@H]1[C@@H]2[C@H](CN1C(=O)[C@@H](NC(=O)NC1([C@@H](C)S(=O)(=O)C(C)(C)C)CCCCC1)C1(C)CCCCC1)C2(C)C)C(=O)C(=O)NC1CC1 | – | 0.95
CC[C@@H]1C[C@@]1(NC(=O)[C@@H]1[C@@H]2[C@H](CN1C(=O)[C@@H](NC(=O)NC1([C@@H](C)S(=O)(=O)C(C)(C)C)CCCCC1)C1Cc3ccccc3C1)C2(C)C)C(=O)C(=O)NC1CC1 | – | 0.5
CC[C@@H]1C[C@@]1(NC(=O)[C@@H]1[C@@H]2[C@H](CN1C(=O)[C@@H](NC(=O)NC1(CS(=O)(=O)C(C)(C)C)CCCCC1)C1CCCCC1)C2(C)C)C(=O)C(=O)NC1CC1 | – | 0.6
CC[C@@H]1C[C@@]1(NC(=O)[C@@H]1[C@@H]2[C@H](CN1C(=O)[C@@H](NC(=O)N[C@H](CN1C(=O)CC(C)(C)CC1=O)C(C)(C)C)C1(C)CCCCC1)C2(C)C)C(=O)C(N)=O | 400 | 0.023
CC[C@@H]1C[C@@]1(NC(=O)[C@@H]1[C@@H]2[C@H](CN1C(=O)[C@@H](NC(=O)NC1([C@@H](C)S(=O)(=O)C(C)(C)C)CCCCC1)C1(C)CCCCC1)C2(C)C)C(=O)C(N)=O | 400 | 0.015
CC(C)(C)[C@H](NC(=O)NC1(CS(=O)(=O)C(C)(C)C)CCCCC1)C(=O)N1C[C@H]2[C@@H]([C@H]1C(=O)NC1(C(=O)C(=O)NC3CC3)CC(O)C1)C2(C)C (stereo partly drawn) | – | 89
CC1CC(NC(=O)[C@@H]2[C@@H]3[C@H](CN2C(=O)[C@@H](NC(=O)NC2(CS(=O)(=O)C(C)(C)C)CCCCC2)C(C)(C)C)C3(C)C)(C(=O)C(=O)NC2CC2)C1 (stereo partly drawn) | – | 0.42
CCC1CC(NC(=O)[C@@H]2[C@@H]3[C@H](CN2C(=O)[C@@H](NC(=O)NC2(CS(=O)(=O)C(C)(C)C)CCCCC2)C(C)(C)C)C3(C)C)(C(=O)C(=O)NC2CC2)C1 (stereo partly drawn) | – | 0.19
CC(C)(C)NC(=O)N[C@H](C(=O)N1C[C@H]2[C@@H]([C@H]1C(=O)NC(CC1CCC1)C(=O)C(N)=O)C2(C)C)C(C)(C)C (stereo partly drawn) [BOCEPREVIR] | 350 | 14
